# Data as given in patent US7345067B2, “Aniline derivatives, their manufacture and use as pharmaceutical agents” (Hoffmann-La Roche Inc., priority 2003, dated 2008).
# Legend:
# [1] = molecular target: T1, PPARγ (Mus musculus, UniProt P37238); assay: Radioligand binding assay (SPA), PPARγ receptor binding; conditions: GST-PPARγ-LBD fusion protein
# T1 construct: PPARγ (aa 174 to 476); made in house; host or cells: E. coli BL21 (pLysS)
# T1 sequence (P37238 204-505): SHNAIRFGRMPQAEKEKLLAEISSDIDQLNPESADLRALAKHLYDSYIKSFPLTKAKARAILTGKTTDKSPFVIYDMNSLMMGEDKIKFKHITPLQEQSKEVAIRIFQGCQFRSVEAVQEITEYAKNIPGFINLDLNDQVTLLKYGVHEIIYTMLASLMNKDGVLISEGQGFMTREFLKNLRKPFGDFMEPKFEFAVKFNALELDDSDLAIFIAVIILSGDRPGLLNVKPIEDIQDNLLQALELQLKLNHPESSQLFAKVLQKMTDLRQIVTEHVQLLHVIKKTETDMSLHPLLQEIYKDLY
# Description: (§1) Background information on the performed assays can be found in: Nichols J S et al. “Development of a scintillation proximity assay for peroxisome proliferator-activated receptor gamma ligand binding domain”, (1998) Anal. Biochem. 257: 112-119.
# (§2) Full-length cDNA clones for humans PPARδ and PPARα and mouse PPARγ were obtained by RT-PCR from human adipose and mouse liver cRNA, respectively, cloned into plasmid vectors and verified by DNA sequencing. Bacterial and mammalian expression vectors were constructed to produce glutathione-s-transferase (GST) and Gal4 DNA binding domain proteins fused to the ligand binding domains (LBD) of PPARδ (aa 139 to 442), PPARγ (aa 174 to 476) and PPARα (aa 167 to 469). To accomplish this, the portions of the cloned sequences encoding the LBDs were amplified from the full-length clones by PCR and then subcloned into the plasmid vectors. Final clones were verified by DNA sequence analysis.
# (§3) Induction, expression, and purification of GST-LBD fusion proteins were performed in E. coli strain BL21 (pLysS) cells by standard methods (Ref: Current Protocols in Molecular Biology, Wiley Press, edited by Ausubel et al.).
# (§4) PPARγ receptor binding was assayed in TKE50 (50 mM Tris-HCl, pH 8, 50 mM KCl, 2 mM EDTA, 0.1 mg/ml fatty acid-free BSA and 10 mM DTT). For each 96 well reaction an 140 ng equivalent of GST-PPARγ-LBD fusion protein was bound to 10 μg SPA beads (PharmaciaAmersham) in a final volume of 50 ul by shaking. The resulting slurry was incubated for 1 h at RT and centrifuged for 2 min at 1300 g. The supernatant containing unbound protein was removed and the semidry pellet containing the receptor-coated beads was resolved in 50 ul of TKE. For radioligand binding e.g. 10000 dpm 2(S)-(2-benzoyl-phenylamino)-3-{4-[1,1-ditritio-2-(5-methyl-2-phenyl-oxazol-4-yl)-ethoxy]-phenyl}-propionic acid in 50 μl were added, the reaction incubated at RT for 1 h and scintillation proximity counting performed. All binding assays were performed in 96 well plates and the amount of bound ligand measured on a Packard TopCount using OptiPlates (Packard). Nonspecific binding was determined in the presence of 10^−4 M unlabelled compound. Dose response curves were done in triplicates within a range of concentration from 10^−10 M to 10^−4 M.
# [2] = molecular target: T2, PPARα (Homo sapiens, UniProt Q07869); assay: Radioligand binding assay (SPA), PPARα receptor binding; conditions: GST-PPARα-LBD fusion protein
# T2 construct: PPARα (aa 167 to 469); made in house; host or cells: E. coli BL21 (pLysS)
# T2 sequence (Q07869 167-468 limits assumed): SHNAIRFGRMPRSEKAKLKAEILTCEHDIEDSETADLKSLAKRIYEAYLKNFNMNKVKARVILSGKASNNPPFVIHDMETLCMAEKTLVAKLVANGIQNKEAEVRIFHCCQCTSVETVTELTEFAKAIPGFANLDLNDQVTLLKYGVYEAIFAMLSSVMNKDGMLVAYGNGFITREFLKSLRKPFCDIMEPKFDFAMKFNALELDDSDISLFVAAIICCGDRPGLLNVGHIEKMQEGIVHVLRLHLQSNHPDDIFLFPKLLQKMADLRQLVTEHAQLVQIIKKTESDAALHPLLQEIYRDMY
# Description: as §1, §2, §3
# as §4, with “PPARα receptor” for “PPARγ receptor”, “of GST-PPARα-LBD” for “of GST-PPARγ-LBD”, “50 μl” for “50 ul”, “dpm of 2(S)-(2-benzoyl-phenylamino)-3-{4-[1,1-d]tritio-2-(5-methyl-2-phenyl-oxazol-4-yl)-ethoxy]-phenyl}-propionic acid or 2,3-ditritio-2(S)-methoxy-3-{4-[2-(5-methyl-2-phenyl-oxazol-4-yl)-ethoxy]-benzo[b]thiophen-7-yl}-propionic” for “dpm 2(S)-(2-benzoyl-phenylamino)-3-{4-[1,1-ditritio-2-(5-methyl-2-phenyl-oxazol-4-yl)-ethoxy]-phenyl}-propionic”, “50 ul” for “50 μl”
# [3] = molecular target: T3, PPARδ (Homo sapiens, UniProt Q03181); assay: Radioligand binding assay (SPA), PPARδ receptor binding; conditions: GST-PPARδ-LBD fusion protein
# T3 construct: PPARδ (aa 139 to 442); made in house; host or cells: E. coli BL21 (pLysS)
# T3 sequence (Q03181 139-441 limits assumed): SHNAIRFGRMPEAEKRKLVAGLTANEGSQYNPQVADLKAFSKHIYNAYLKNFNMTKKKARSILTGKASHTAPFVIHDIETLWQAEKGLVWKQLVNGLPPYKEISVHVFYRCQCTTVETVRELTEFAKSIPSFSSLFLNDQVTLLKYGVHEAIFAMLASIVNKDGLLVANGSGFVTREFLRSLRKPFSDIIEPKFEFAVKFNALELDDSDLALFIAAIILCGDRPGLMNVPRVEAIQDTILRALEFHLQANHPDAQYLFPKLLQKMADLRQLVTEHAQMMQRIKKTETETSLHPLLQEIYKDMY
# Description: as §1, §2, §3
# PPARδ receptor binding was assayed in HNM10 (50 mM Hepes, pH 7.4, 10 mM NaCl, 5 mM MgCl2, 0.15 mg/ml fatty acid-free BSA and 15 mM DTT). For each 96 well reaction a 500 ng equivalent of GST-PPARδ-LBD fusion protein and radioligand, e.g. 20000 dpm {2-methyl-4-[4-methyl-2-(4-trifluoromethyl-phenyl)-thiazol-5-yl-ditritiomethylsulfanyl]-phenoxy}-acetic acid, was bound to 10 μg SPA beads (PharmaciaAmersham) in a final volume of 50 μl by shaking. The resulting slurry was incubated for 1 h at RT and centrifuged for 2 min at 1300 g. The supernatant containing unbound protein was removed and the semidry pellet containing the receptor-coated beads was resuspended in 50 ul of HNM. Radioligand was added and the reaction incubated at RT for 1 h and scintillation proximity counting performed in the presence of test compounds was determined. All binding assays were performed in 96 well plates and the amount of bound ligand was measured on a Packard TopCount using OptiPlates (Packard). Dose response curves were done in triplicates within a range of concentration from 10^−10 M to 10^−4 M.
IC50 [1],melting point,IC50 [2],IC50 [3],SMILES
> 10 µM,149 to 150 °C (dec.),0.412 µM,0.021 µM,"Cc1nc(-c2ccc(C(F)(F)F)cc2)sc1CN(C)c1ccc(OCC(=O)O)c(Cl)c1 [Example 4.6, (2-Chloro-4-{methyl-[4-methyl-2-(4-trifluoromethyl-phenyl)-thiazol-5-ylmethyl]-amino}-phenoxy)-acetic acid]"
> 10 µM,113 to 114 °C,1.06 µM,0.0498 µM,"Cc1nc(-c2ccc(C(F)(F)F)cc2)sc1CN(C)c1ccc(OCC(=O)O)c(F)c1 [Example 5.7, (2-Fluoro-4-{methyl-[4-methyl-2-(4-trifluoromethyl-phenyl)-thiazol-5-ylmethyl]-amino}-phenoxy)-acetic acid]"
> 10 µM,180 to 181 °C,0.463 µM,0.0162 µM,"Cc1nc(-c2ccc(C(F)(F)F)cc2)sc1CN(C)c1ccc(OCC(=O)O)c(C(F)(F)F)c1 [Example 6.8, (4-{Methyl-[4-methyl-2-(4-trifluoromethyl-phenyl)-thiazol-5-ylmethyl]-amino}-2-trifluoromethyl-phenoxy)-acetic acid]"
,156 to 157 °C,,,"Cc1cc(N(C)Cc2oc(-c3ccc(C(F)(F)F)cc3)nc2C)ccc1OCC(=O)O [Example 14, (2-Methyl-4-{methyl-[4-methyl-2-(4-trifluoromethyl-phenyl)-oxazol-5-ylmethyl]-amino}-phenoxy)-acetic acid]"
,147 to 154 °C (dec.),,,"CCN(Cc1sc(-c2ccc(C(F)(F)F)cc2)nc1C)c1ccc(OCC(=O)O)c(C)c1 [Example 19.2, (4-{Ethyl-[4-methyl-2-(4-trifluoromethyl-phenyl)-thiazol-5-ylmethyl]-amino}-2-methyl-phenoxy)-acetic acid]"

# Continued, compound first:
SMILES,IC50 [1],melting point,IC50 [2],IC50 [3]
"Cc1cc(N(C)Cc2sc(-c3ccc(C(F)(F)F)cc3)nc2C)ccc1OCC(=O)O [Example 1.6, (2-Methyl-4-{methyl-[4-methyl-2-(4-trifluoromethyl-phenyl)-thiazol-5-ylmethyl]-amino}-phenoxy)-acetic acid]",> 10 µM,146 to 149 °C (dec.),1.75 µM,0.0177 µM
"CCc1cc(N(C)Cc2sc(-c3ccc(C(F)(F)F)cc3)nc2C)ccc1OCC(=O)O [Example 7.8, (2-Ethyl-4-{methyl-[4-methyl-2-(4-trifluoromethyl-phenyl)-thiazol-5-ylmethyl]-amino}-phenoxy)-acetic acid]",2.21 µM,142 to 143 °C (dec.),0.308 µM,0.0101 µM
"COc1cc(N(C)Cc2sc(-c3ccc(C(F)(F)F)cc3)nc2C)ccc1OCC(=O)O [Example 8.7, (2-Methoxy-4-{methyl-[4-methyl-2-(4-trifluoromethyl-phenyl)-thiazol-5-ylmethyl]-amino}-phenoxy)-acetic acid]",,129 to 131 °C (dec.),,
"COCCCc1cc(N(C)Cc2sc(-c3ccc(C(F)(F)F)cc3)nc2C)ccc1OCC(=O)O [Example 13.10, (2-(3-Methoxy-propyl)-4-{methyl-[4-methyl-2-(4-trifluoromethyl-phenyl)-thiazol-5-ylmethyl]-amino}-phenoxy)-acetic acid]",> 10 µM,142 to 143 °C,3.96 µM,0.034 µM
"CCN(Cc1sc(-c2ccc(C(F)(F)F)cc2)nc1C)c1cc(C)c(OCC(=O)O)c(C)c1 [Example 15.5, (4-{Ethyl-[4-methyl-2-(4-trifluoromethyl-phenyl)-thiazol-5-ylmethyl]-amino}-2,6-dimethyl-phenoxy)-acetic acid]",,161 to 162 °C,,
"Cc1cc(N(C)Cc2oc(-c3ccc(C(F)(F)F)cc3)nc2C)cc(C)c1OCC(=O)O [Example 16.4, (2,6-Dimethyl-4-{methyl-[4-methyl-2-(4-trifluoromethyl-phenyl)-oxazol-5-ylmethyl]-amino}-phenoxy)-acetic acid]",,122 to 123 °C,,
"Cc1cc(NCc2sc(-c3ccc(C(F)(F)F)cc3)nc2C)ccc1OCC(=O)O [Example 18.3, (2-Methyl-4-{[4-methyl-2-(4-trifluoromethyl-phenyl)-thiazol-5-ylmethyl]-amino}-phenoxy)-acetic acid]",,201 to 203 °C (dec.),,
"Cc1nc(-c2ccc(C(F)(F)F)cc2)sc1CN(C)c1ccc(OCC(=O)O)c(I)c1 [Example 20.8, (2-Iodo-4-{methyl-[4-methyl-2-(4-trifluoromethyl-phenyl)-thiazol-5-ylmethyl]-amino}-phenoxy)-acetic acid]",,172.5 to 173 °C,,
